“Also recorded” adds a separate entry of the source.
Experiments:
Type in all cases: in vivo
[1] = system: STAM mice; test: STAM model: whole blood and plasma biochemistry; conditions: for Whole Blood Glucose Levels: non-fasting, 5-9 wks
Experimental: (§1) NASH-HCC (STAM™) Model. C57BL/6 (15-day-pregnant female) mice are obtained from Charles River Laboratories Japan (Kanagawa, Japan). Male pups are selected for the study. NASH is induced in male mice by a single subcutaneous injection of 200 μg streptozotocin (STZ, Sigma-Aldrich, USA) solution 2 days after birth, followed by feeding a HFD (57 kcal % fat, cat#: HFD32, CLEA Japan, Japan) beginning at 4 weeks of age. At 5 weeks of age, mice are divided into a control group and one or more treated group (generally 8 mice per group). Animals are sacrificed at 9 weeks of age, and biochemical, histological, and gene expression analyses are performed.
(§2) During weeks 5-9 (starting at day 35±2), test compound is administered (generally orally) at various doses diluted to 10 mL/kg and according to various dosing protocols to treatment groups (8 mice each) while a second group (8 mice) is administered vehicle only. Animals are sacrificed at 9 weeks.
Measurement of whole blood and plasma biochemistry. Non-fasting blood glucose was measured in whole blood using LIFE CHECK (EIDIA, Japan). For plasma biochemistry, blood was collected in polypropylene tubes with anticoagulant (Novo-Heparin, Mochida Pharmaceutical, Japan) and centrifuged at 1,000×g for 15 minutes at 4° C. The supernatant was collected and stored at −80° C. until use. Plasma ALT levels were measured by FUJI DRI-CHEM 7000 (Fujifilm, Japan). Plasma insulin, MIF and IL-22 were quantified by Ultra Sensitive Mouse Insulin ELISA Kit (Morinaga Institute of Biological science, Japan), Mouse Macrophage Migration Inhibitory Factor (MIF) ELISA (Kamiya Biomedical, USA), Quantikine ELISA Mouse/Rat IL-22 Immunoassay kit (R&D Systems, USA), respectively.
(§3) Illustrative dose response test groups. Group 1-Normal. Eight normal mice are fed with a normal diet ad libitum without any treatment until 9 weeks of age. Group 2-Vehicle. Eight NASH mice are orally administered vehicle (0.5% w/v methylcellulose+0.2% Tween®80) in a volume of 10 mL/kg twice daily from 5 to 9 week of age. Group 3-solithromycin 5 mg/kg. Eight NASH mice are orally administered vehicle supplemented with solithromycin at a dose of 5 mg/kg in the morning and the vehicle in the evening (5 mg/kg/day) from 5 to 9 weeks of age. Group 4-solithromycin 10 mg/kg. Eight NASH mice are orally administered vehicle supplemented with solithromycin at a dose of 10 mg/kg twice daily (20 mg/kg/day) from 5 to 9 weeks of age. Group 5-solithromycin 25 mg/kg. Eight NASH mice are orally administered vehicle supplemented with solithromycin at a dose of 25 mg/kg twice daily (50 mg/kg/day) from 5 to 9 weeks of age. Group 6-solithromycin 50 mg/kg. Eight NASH mice are orally administered vehicle supplemented with solithromycin at a dose of 50 mg/kg once daily (50 mg/kg/day) from 5 to 9 weeks of age.

[2] = system: STAM mice; test: STAM model: liver triglyceride content
Experimental: as §1, §2
Measurement of liver biochemistry—liver triglyceride content. Liver total lipid-extracts are obtained by Folch's method (Folch J. et al., J. Biol. Chem., 1957; 226:497). Liver samples are homogenized in chloroform-methanol (2:1, v/v) and incubated overnight at room temperature. After washing with chloroform-methanol-water (8:4:3, v/v/v), the extracts are evaporated to dryness, and dissolved in isopropanol. Liver triglyceride (TG) and cholesterol contents were measured by Triglyceride E-test and Cholesterol E-test (Wako Pure Chemical Industries, Japan), respectively. Extracts are diluted 2-fold in isopropanol when the triglyceride content exceeds the detection limit.
as §3

[3] = system: STAM mice; test: STAM model: serum biochemistry (HPLC)
Experimental: as §1, §2
Measurement of serum biochemistry. For serum biochemistry, blood is collected in polypropylene tubes without anticoagulant and incubated at room temperature for 30 minutes, at 4° C. for 1 hour, and then centrifuged at 1,000×g for 15 minutes at 4° C. The supernatant is collected and stored at −80° C. until use. Serum triglyceride, HDL-cholesterol, LDL-cholesterol, VLDL-cholesterol, and chylomicron ([…]) are quantified by HPLC at Skylight Biotech Inc. (Japan).
as §3

[4] = Absorption, metabolism and excretion of orally administered solithromycin; conditions: oral
Source text: Macrolide antibiotics, like solithromycin, are primarily metabolized and excreted through liver-dependent mechanisms; this study evaluated the safety and PK of solithromycin in patients with chronic liver disease. It has been observed that approximately 78% of orally administered solithromycin is absorbed. Less than 15% unchanged solithromycin is excreted in the feces. It has also been observed that ˜70% of orally administered solithromycin is metabolized and excreted by the liver. Accordingly, high liver concentrations are observed. No dosage adjustment is needed when administering solithromycin to patients with mild, moderate, or severe hepatic impairment.

[5] = 5 mg/kg q.d., listed as SOLI, 5 mg/kg
[6] = 10 mg/kg b.i.d., listed as SOLI, 10 mg/kg
[7] = 25 mg/kg b.i.d., listed as SOLI, 25 mg/kg

CC[C@H]1OC(=O)[C@@](C)(F)C(=O)[C@H](C)[C@@H](O[C@@H]2O[C@H](C)C[C@H](N(C)C)[C@H]2O)[C@](C)(OC)C[C@@H](C)C(=O)[C@H](C)[C@H]2N(CCCCn3cc(-c4cccc(N)c4)nn3)C(=O)O[C@]12C [solithromycin]
Plasma ALT ([1]; 5 mg/kg q.d.): 52 ± 78 U/L | Plasma IL-22 ([1]; 5 mg/kg q.d.): 31.8 ± 1.6 pg/mL | Plasma insulin ([1]; 5 mg/kg q.d.): 0.25 ± 0.10 ng/mL | Plasma MIF ([1]; 5 mg/kg q.d., 5 mg/kg): no statistically significant differences | Plasma MIF [1, 5]: 4665 ± 2131 pg/mL | Plasma ALT ([1]; 10 mg/kg b.i.d.): 31 ± 19 U/L | Plasma IL-22 ([1]; 10 mg/kg b.i.d.): 33.0 ± 5.0 pg/mL | Plasma insulin ([1]; 10 mg/kg b.i.d.): 0.41 ± 0.35 ng/mL | Plasma MIF ([1]; 10 mg/kg b.i.d., 10 mg/kg): no statistically significant differences | Plasma MIF [1, 6]: 4852 ± 1720 pg/mL | Plasma ALT ([1]; 25 mg/kg b.i.d.): 34 ± 14 U/L | Plasma IL-22 ([1]; 25 mg/kg b.i.d.): 33.8 ± 7.2 pg/mL | Plasma insulin ([1]; 25 mg/kg b.i.d.): 0.41 ± 0.22 ng/mL | Plasma MIF ([1]; 25 mg/kg b.i.d., 25 mg/kg): significantly increased | Plasma MIF [1, 7]: 11748 ± 7633 pg/mL | Plasma IL-22 levels compared to vehicle group ([1]; any doses): no statistically significant differences | Plasma insulin levels compared to vehicle group ([1]; any doses): no statistically significant differences; also recorded: not significantly affected | Plasma ALT levels compared to vehicle group ([1]; any doses (Groups 3-6)): no significant differences | Whole Blood Glucose Levels ([1]; 5 mg/kg q.d. oral, 5 mg/kg): no statistically significant differences | Whole Blood Glucose Levels ([1]; 5 mg/kg q.d. oral, listed as SOLI, 5 mg/kg): 726 ± 101 mg/dL | Whole Blood Glucose Levels ([1]; 5 mg/kg q.d. oral, listed as Solithromycin, 5 mg/kg): 726 ± 101 mg/dL | Whole Blood Glucose Levels ([1]; 10 mg/kg b.i.d. oral, 10 mg/kg): no statistically significant differences | Whole Blood Glucose Levels ([1]; 10 mg/kg b.i.d. oral, listed as SOLI, 10 mg/kg): 713 ± 172 mg/dL | Whole Blood Glucose Levels ([1]; 10 mg/kg b.i.d. oral, listed as Solithromycin, 10 mg/kg): 713 ± 172 mg/dL | Whole Blood Glucose Levels ([1]; 25 mg/kg b.i.d. oral, 25 mg/kg): Statistically significant blood glucose decrease | Whole Blood Glucose Levels ([1]; 25 mg/kg b.i.d. oral, listed as SOLI, 25 mg/kg): 497 ± 259 mg/dL | Whole Blood Glucose Levels ([1]; 25 mg/kg b.i.d. oral, listed as Solithromycin, 25 mg/kg): 497 ± 259 mg/dL | Whole Blood Glucose Levels ([1]; 50 mg/kg q.d. oral, 50 mg/kg): Statistically significant blood glucose decrease | Whole Blood Glucose Levels ([1]; 50 mg/kg q.d. oral, listed as Solithromycin, 50 mg/kg): 380 ± 170 mg/dL | Liver triglyceride ([2]; 5 mg/kg q.d.): 127.7 ± 62.3 mg/g liver | Liver triglyceride ([2]; 10 mg/kg b.i.d.): 161.8 ± 44.5 mg/g liver | Liver triglyceride ([2]; 25 mg/kg b.i.d.): 100.8 ± 35.3 mg/g liver | Liver triglyceride content compared to vehicle group ([2]; any doses (Groups 3-6)): no statistically significant differences | Serum HDL-cholesterol ([3]; 5 mg/kg q.d., 5 mg/kg): no statistically significant differences | Serum VLDL-cholesterol ([3]; 5 mg/kg q.d., 5 mg/kg): no statistically significant differences | Serum chylomicron ([3]; 5 mg/kg q.d., 5 mg/kg): no statistically significant differences | Serum triglyceride ([3]; 5 mg/kg q.d., 5 mg/kg): no statistically significant differences | Serum HDL-cholesterol [3, 5]: 88.4 ± 14.2 mg/dL | Serum VLDL-cholesterol [3, 5]: 9.8 ± 5.3 mg/dL | Serum chylomicron [3, 5]: 1.5 ± 1.2 mg/dL | Serum triglyceride [3, 5]: 133.8 ± 110.1 mg/dL | Serum HDL-cholesterol ([3]; 10 mg/kg b.i.d., 10 mg/kg): no statistically significant differences | Serum VLDL-cholesterol ([3]; 10 mg/kg b.i.d., 10 mg/kg): no statistically significant differences | Serum chylomicron ([3]; 10 mg/kg b.i.d., 10 mg/kg): no statistically significant differences | Serum triglyceride ([3]; 10 mg/kg b.i.d., 10 mg/kg): no statistically significant differences | Serum HDL-cholesterol [3, 6]: 89.3 ± 21.5 mg/dL | Serum VLDL-cholesterol [3, 6]: 9.7 ± 3.8 mg/dL | Serum chylomicron [3, 6]: 1.4 ± 0.6 mg/dL | Serum triglyceride [3, 6]: 116.5 ± 58.8 mg/dL | Serum HDL-cholesterol ([3]; 25 mg/kg b.i.d., 25 mg/kg): no statistically significant differences | Serum VLDL-cholesterol ([3]; 25 mg/kg b.i.d., 25 mg/kg): significantly decreased; also recorded: Statistically significant reduced | Serum chylomicron ([3]; 25 mg/kg b.i.d., 25 mg/kg): significantly decreased | Serum triglyceride ([3]; 25 mg/kg b.i.d., 25 mg/kg): significantly decreased; also recorded: Statistically significant reduced | Serum HDL-cholesterol [3, 7]: 97.9 ± 26.3 mg/dL | Serum VLDL-cholesterol [3, 7]: 5.4 ± 3.2 mg/dL | Serum chylomicron [3, 7]: 0.7 ± 0.4 mg/dL | Serum triglyceride [3, 7]: 46.8 ± 47.8 mg/dL | Fraction of orally administered dose absorbed [4]: approximately 78% | Fraction of orally administered dose metabolized and excreted by the liver [4]: ~70% | Unchanged drug excreted in the feces [4]: Less than 15%
